{"source": "patent US20250326756A1", "about": "“METHOD FOR PRODUCING 3,6-DISUBSTITUTED-IMIDAZO[1,2-B]PYRIDAZINE COMPOUNDS” (NUVATION BIO INC., priority 2022, published 2025)", "test": "Particle size distribution of monoadipate salt particles", "type": "physicochemical", "conditions": "particles without milling or after wet milling", "experimental": "The crude product was purified and milled as follows: After 4.02 Kg/Kg of anhydrous ethanol and 2.2 Kg/Kg of purified water were added into a reactor and stirred, the crude product obtained above was added to the mixture. The reaction mixture was heated to 65-70° C. and stirred until a clear solution was obtained. The recommended stirring time and rotation speed were 0.5-1 hour and 60-100 rpm, respectively. The reaction mixture was then cooled to 50-55° C. (target temperature: 53° C.) with a recommended cooling rate of 5-10° C./h. After 0.01 Kg/Kg of seed crystals of the compound of formula (5) adipate salt were added to the mixture at 50˜55° C., the mixture was stirred for 1˜3 hours (target: 2 hours) at this temperature. The reaction mixture was cooled down to 20-30° C. (target temperature: 25° C.) with recommended cooling rate of 5-10° C./h. After 8.4 Kg/Kg of purified water was slowly added to the mixture at 20-30° C. in 1-3 hours (target: 2 hours), the mixture was stirred for 1˜3 hours (target: 2 hours) at this temperature. The mixture was cooled to −5 to 5° C. (target temperature: 0° C.) at a cooling rate of 5 to 10° C./h, and stirred at this temperature for 4 to 8 hours (target: 6 hours). While maintaining the temperature at −5 to 5° C. (target temperature: 0° C.), the reaction mixture was passed through a wet mill (Blade no. 2, 6, and 6; rotation speed: 6,000-10,000 rpm, target: 8,000 rpm). Samples were taken every 20-30 minutes to measure the particle size of the solids after wet milling until D50 was no more than 45 μm (target: 35-45 μm). The reaction mixture was filtered through a filter with filter dryer sheath pre-cooled to T=−5˜5° C. The filter cake was washed with a mixture of 1.1 Kg/Kg of purified water and 0.39 Kg/Kg of anhydrous ethanol, which was pre-cooled to −5˜5° C. and maintain for at least 0.5 hour. The solid thus obtained was dried at 50˜60° C. in an oven under a controlled temperature of no more than 70° C. for 12 hours. Samples were taken every 4˜8 hours to track the residual ethanol and make sure the content of residual ethanol was no more than 0.4%. […]"}
{"substance": "3-(4-((R)-2-aminopropoxy)phenyl)-N—((R)-1-(3-fluorophenyl)ethyl)imidazo[1,2-b]pyridazin-6-amine adipate salt [compound of formula (5) adipate salt]", "values": [{"measurement": "Particle size D10", "result": 7.2, "unit": "μm"}, {"measurement": "Particle size D50", "result": 44, "unit": "μm"}, {"measurement": "Particle size D90", "result": 107, "unit": "μm"}]}
